Patent publication US20130287890A1, “INHIBITOR OF THE PRODUCTION OF ADVANCED GLYCATION END PRODUCTS” (UENO FINE CHEMICALS INDUSTRY, LTD., priority 2012, published 2013)

Assays:
human RAGE = biological target: T1, human RAGE (Homo sapiens, UniProt Q15109); experiment: RAGE antagonist activity of reaction samples (37° C., 42 days) mixed with AGE-BSA, NF-κB luciferase assay in C6 glioma cells; format: cell-based, rat C6 glioma cells expressing human RAGE
T1 construct: human RAGE plasmid (including full-length human RAGE cDNA); expressed in transfected cells; host or cells: C6 glioma cells carrying pNF-κB-Luc plasmid and human RAGE plasmid
T1 sequence (Q15109 23-404): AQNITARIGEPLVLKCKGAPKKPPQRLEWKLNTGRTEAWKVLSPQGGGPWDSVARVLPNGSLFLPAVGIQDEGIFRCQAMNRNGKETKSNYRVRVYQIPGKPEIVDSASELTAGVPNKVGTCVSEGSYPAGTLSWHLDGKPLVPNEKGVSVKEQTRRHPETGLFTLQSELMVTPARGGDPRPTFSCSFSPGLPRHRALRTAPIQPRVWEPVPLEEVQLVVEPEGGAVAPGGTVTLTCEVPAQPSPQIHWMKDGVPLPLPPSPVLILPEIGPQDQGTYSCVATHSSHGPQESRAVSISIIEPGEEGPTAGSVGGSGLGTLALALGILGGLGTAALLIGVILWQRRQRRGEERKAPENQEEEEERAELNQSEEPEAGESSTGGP
Protocol: (§1) Amino acid, carbohydrates and a phosphate buffer solution were charged in a 50 mL polypropylene centrifuge tube in each amount shown in Table 10, followed by sealing and stirring, and then the mixture was reacted in an incubator at 37° C. for 42 days. Next, the reactant was filtered through a 0.2 μm filter and the obtained filtrate was used as a sample. Amino acid and carbohydrates used are as follows:
Using Luciferase Assay System (manufactured by Promega Corporation), evaluation of RAGE antagonist activity was performed. (Day 1) According to the methods disclosed in Diabetes, 2006, vol. 55, pp. 2510-2522, C6 glioma cells into which pNF-κB-Luc plasmid (manufactured by Stratagene Corporation) and human RAGE plasmid (including full-length human RAGE cDNA) have been introduced were seeded at 100 μL/well into a 96-well plate and cultured in a CO2 incubator until the cells were confluent. For the culture, 10% FBS/DMEM medium was used. (Day 2) The medium was removed, and after wells were washed with 300 μL of serum-free DMEM medium, 100 μL of 0.1% FBS/DMEM medium was slowly added. Then, the medium was incubated overnight in a CO2 incubator. (Day 3) The sample was diluted using the medium, and 50 μL of the diluted sample, AGE-BSA in which AGE was formed with glyceraldehydes (50 μg/mL) as a control, and the mixture of diluted sample and AGE-BSA were added to wells. After incubation in a CO2 incubator for 4 hours, the medium was removed and wells were washed 2 times with 300 μL of PBS (−). Then, 25 μL of 1× lysis buffer was added on ice. After the plate was shaken for 15 seconds, 20 μL of lysate was charged in a new white plate. Further 100 μL of a luciferase assay reagent was added, and a […] was measured by a luminometer. Using 5 μL of lysate, quantitative determination of protein was also performed.
(§2) Biological proteins, carbohydrates and a phosphate buffer solution are charged in a 50 mL polypropylene centrifuge tube in each amount shown in Table 12, followed by sealing and stirring, and then the mixture was reacted in an incubator at 37° C. for 42 days. Next, the reactant was fractionated by centrifugation at 3,000 rpm for 3 hours using an ultrafiltration unit (VIVA SPIN 20, manufactured by Sartorius Corporation). The obtained low molecular weight fraction was used as a sample for determination of 3-DG, while the obtained high molecular weight fraction was used as a sample for the determination of fluorescent AGEs, pentosidine, CML, RAGE agonist activity and RAGE antagonist activity. Biological proteins and carbohydrates used are as follows:
(§3) In the same manner as in Test Example 4, except that the low molecular weight fraction prepared as mentioned above was used as a sample, quantitative determination of 3-DG was performed. In the same manner as in Test Example 4, except that the high molecular weight fraction was filtered through a 0.2 μm filter and the filtrate was used as a sample, fluorescent AGEs, pentosidine, CML, RAGE agonist activity and RAGE antagonist activity were evaluated.
Collagen, carbohydrates and a phosphate buffer solution were charged in a 50 mL polypropylene centrifuge tube in each amount shown in Table 14, followed by sealing and stirring, and then the mixture was reacted in an incubator at 37° C. for 42 days. Next, the reactant was fractionated by centrifugation at 3,000 rpm for 3 hours using an ultrafiltration unit (VIVA SPIN 20, manufactured by Sartorius Corporation). The obtained low molecular weight fraction was used as a sample for determination of 3-DG. Meanwhile, 0.4 g of a high molecular weight fraction and 8 mL of 6N hydrochloric acid were charged in an ampule and the air in the ampule was replaced with nitrogen, and then hydrolysis was performed at 110° C. for 16 hours in a heat block. After reaction, 8 mL of 5N sodium hydroxide was added, and pH was adjusted using 1N hydrochloric acid and 1N sodium hydroxide to make pH within a range of 7.2 to 7.6. […]

CML = experiment: Quantitative determination of CML after reaction at 37° C. for 42 days; format: biochemical; settings: for CML: 37° C., 42 days
Protocol: as §1
Using CircuLex CML/Nε-(carboxymethyl) lysine ELISA kit (manufactured by CycLex Co., Ltd.), quantitative determination of CML was performed in the following manner. Thirty (30) or more minutes before use, reagents and CML solid-phase wells were put to room temperature. By adding 1 mL of ultrapure water (Milli-Q water) to a CML-HSA standard powder, a master standard was prepared. By performing dilution with standard dilution buffers, standards 1 to 7 were prepared. The sample was diluted as necessary with sample dilution buffers. A CML-HSA standard and 60 μL of the sample were dispensed into a 96-well plate, which is not an accessory to the kit. Next, ultrapure water (Milli-Q water) was added to a first antibody powder, and by diluting with sample dilution buffers, a first antibody solution was prepared; 60 μL of the antibody solution was dispensed into the plate and mixed. After 100 μL of the mixture was added to CML solid-phase wells, the mixture was reacted at 25° C. for 1 hour while being shaken at 300 rpm. Then, the reaction solution was discarded, and 350 μL of rinsing fluid was dispensed to wash the plate. The washing was performed for 4 times. After liquid on the plate was removed, 100 μL of a second antibody solution was dispensed and reacted at 25° C. for 1 hour while being shaken at 300 rpm. The reaction solution was discarded, and the plate was washed for 4 times with 350 μL of rinsing fluid again. Liquid on the plate was removed, and 100 μL of a color coupler was dispensed. Then, the solution was left to stand for 10 minutes under a light shielding condition while being shaken at 300 rpm. Finally, 100 μL of a reaction stop solution was dispensed, and within 30 minutes after the dispensing, measurement was performed at main wavelength 450 nm/reference wavelength 595 nm using a micro-plate reader. The concentration of CML was determined using the calibration curve of a CML standard solution, based on measurement values of the sample.
as §2, §3
Collagen, carbohydrates and a phosphate buffer solution were charged in a 50 mL polypropylene centrifuge tube in each amount shown in Table 14, followed by sealing and stirring, and then the mixture was reacted in an incubator at 37° C. for 42 days. […]

[1] = Test Example 4, amino acid + carbohydrate, mixture of sample and AGE-BSA, amount of protein 100 μg/mL, relative to control (AGE-BSA) = 1
[2] = Test Example 5, bovine serum albumin + carbohydrate, mixture of sample and AGE-BSA, protein 100 μg/mL, relative to control (AGE-BSA) = 1
[3] = Test Example 5, human serum albumin + carbohydrate, mixture of sample and AGE-BSA, protein 100 μg/mL, relative to control (AGE-BSA) = 1
[4] = Test Example 5, γ-globulin + carbohydrate, mixture of sample and AGE-BSA, protein 10 μg/mL, relative to control (AGE-BSA) = 1
[5] = Test Example 6, collagen + carbohydrate, mixture of sample and AGE-BSA, protein 10 μg/mL, relative to control (AGE-BSA) = 1
[6] = Test Example 4, amino acid 0.4 g + carbohydrate 1.8 g
[7] = Test Example 5, bovine serum albumin 0.4 g + carbohydrate 1.8 g
[8] = Test Example 5, human serum albumin 0.4 g + carbohydrate 1.8 g
[9] = Test Example 5, γ-globulin 0.4 g + carbohydrate 1.8 g
[10] = Test Example 6, collagen 0.015 g + carbohydrate 1.8 g, hydrolysed high molecular weight fraction
[11] = Test Example 5, bovine serum albumin, human serum albumin, γ-globulin, compared with sections containing glucose
[12] = Test Example 6, collagen, compared with sections containing glucose and fructose

RAGE antagonist activity (human RAGE; [1]) | RAGE antagonist activity (human RAGE; [2]) | RAGE antagonist activity (human RAGE; [3]) | RAGE antagonist activity (human RAGE; [4]) | RAGE antagonist activity (human RAGE; [5]) | RAGE antagonist activity (human RAGE; Test Example 4, amino acid, compared with the test section 2 containing fructose) | RAGE antagonist activity (human RAGE; [11]) | RAGE antagonist activity (human RAGE; Test Example 5, test sections 3 and 6 (bovine serum albumin, human serum albumin), compared with sections containing fructose) | RAGE antagonist activity (human RAGE; [12]) | Structure (SMILES) | CML (CML; [6]) | CML (CML; [7]) | CML (CML; [8]) | CML (CML; [9]) | CML (CML; [10]) | production of CML (CML; Test Example 4, amino acid, compared with sections containing glucose and fructose) | production of CML (CML; Test Example 5, bovine serum albumin, human serum albumin, γ-globulin, compared with sections containing fructose) | production of CML (CML; [11]) | production of CML (CML; [12])
0.56 | 1.08 | 1.20 | 1.07 | 2.85 | – | – | – | – | O=C[C@H](O)[C@@H](O)[C@H](O)[C@H](O)CO [Glucose] | 1197 nmol/1 mL of reaction solution | 309 nmol/1 mL of reaction solution | 1749 nmol/1 mL of reaction solution | 3628 nmol/1 mL of reaction solution | 475 nmol/1 mL of reaction solution | – | – | – | –
0.66 | 1.08 | 1.01 | 0.90 | 1.22 | decreased | decreased | decreased | decreased | OC[C@@H](O)[C@@H](O)[C@H](O)[C@@H](O)CO [Sorbitol] | 57 nmol/1 mL of reaction solution | 10 nmol/1 mL of reaction solution | 69 nmol/1 mL of reaction solution | 29 nmol/1 mL of reaction solution | 445 nmol/1 mL of reaction solution | decreased | decreased | decreased | decreased

Structure (SMILES) | RAGE antagonist activity (human RAGE; [1]) | RAGE antagonist activity (human RAGE; [2]) | RAGE antagonist activity (human RAGE; [3]) | RAGE antagonist activity (human RAGE; [4]) | RAGE antagonist activity (human RAGE; [5]) | RAGE antagonist activity (human RAGE; Test Example 4, amino acid, compared with the test section 2 containing fructose) | RAGE antagonist activity (human RAGE; [11]) | RAGE antagonist activity (human RAGE; Test Example 5, test sections 3 and 6 (bovine serum albumin, human serum albumin), compared with sections containing fructose) | RAGE antagonist activity (human RAGE; [12]) | CML (CML; [6]) | CML (CML; [7]) | CML (CML; [8]) | CML (CML; [9]) | CML (CML; [10]) | production of CML (CML; Test Example 4, amino acid, compared with sections containing glucose and fructose) | production of CML (CML; Test Example 5, bovine serum albumin, human serum albumin, γ-globulin, compared with sections containing fructose) | production of CML (CML; [11]) | production of CML (CML; [12])
O=C(CO)[C@@H](O)[C@H](O)[C@H](O)CO [Fructose] | 0.70 | 1.15 | 1.33 | 1.08 | 2.49 | – | – | – | – | 519 nmol/1 mL of reaction solution | 1046 nmol/1 mL of reaction solution | 4626 nmol/1 mL of reaction solution | 3813 nmol/1 mL of reaction solution | 452 nmol/1 mL of reaction solution | – | – | – | –
